Source: patent US12263248B2, “Compounds and compositions for intracellular delivery of therapeutic agents” (ModernaTX, Inc., priority 2018, dated 2025)

How the values were obtained:
[1] = Metabolite identification of Compound 18 in human plasma; format: in vitro ADME; design: key to Detection in incubation: +: Detected; ND: Not detected; details: for Detection in incubation: Compound 18 (10 μM), human plasma
Method: Metabolite Identification: Compound 18 (10 μM) was incubated with human plasma (29.0 mg protein/incubation) in incubation mixtures (200 μL final incubation volume) that consisted of 50/50v/v neat plasma (undiluted)/substrate solution in 50 mM phosphate buffer, pH 7.4). The plasma was obtained from male and female donors and contained K2EDTA anticoagulant. Reactions were started by addition of the substrate solution to human plasma and were stopped at four designated time points (0, 30, 60 and 90 min) by the addition of 600 μL of stop reagent (acetonitrile). Stopped incubation samples were centrifuged (e.g., 10,000×g for 10 min at 10° C.) and the supernatant fractions were analyzed by LC-MS/MS to characterize the metabolites formed from compound 18. Additional incubations were performed with the positive control procaine (5 μM) to establish competency of the test system. Samples were analyzed by LC-MS/MS.

IL-6, MCP-1 = assay: Cytokine induction in non-human primates; format: in vivo, Cynomolgus monkeys
Method: The tolerability and efficacy of nanoparticle compositions to non-human primates was also investigated using a sample formulation including Compound 18. The formulation was prepared according to the standard MC3 formulation described above and included an hEPO mRNA. Primates were administered a single dose of 0.05 (Group 1), 0.3 (Group 2), or 1.0 (Group 3) mpk via intravenous infusion for 60 minutes. Three primates were administered each dose. Expression of hEPO was measured prior to dosing and at 2, 6, 24, 48, and 96 hours post-treatment (Table 26). Table 28 includes levels of indicators of complement activation, while Table 29 includes cytokine induction data.
hEPO ELISA for NHP samples: Human Epo levels were measured using a human erythropoietin immunoassay. Cytokines levels were measured using a non-human primate cytokine kit.

[2] = rat, MC3-based mRNA containing LNP, 0.3 mg/kg dose mRNA; cited from earlier work
hEPO mRNA = assay: Pretreatment study in Cynomolgus monkeys (standard MC3 formulation, hEPO mRNA); format: in vivo; details: once weekly for four weeks, absence of any pretreatment
Method: The effects of pretreatment to non-human primates were evaluated using a standard MC3 formulation including an mRNA encoding hEPO. Male monkeys were administered the nanoparticle composition once weekly for four weeks at a dose rate of 5 ml/kg/h and were pretreated with either methotrexate or dexamethasone.
As shown, in the absence of any pretreatment, maximal expression levels decreased nearly 70% over the course of the study.

[3] = MC3 single cell necrosis in rat liver and liver enzymes; format: in vivo, rats; details: rat liver
Method: FIG. 37 is a series of graphs illustrating MC3 single cell necrosis in rat liver and liver enzyme. The top row is a pair of images of livers of rats administered with 0.3 mg/kg of a […] (LNP) not containing an mRNA (right) and PBS (phosphate buffered saline) as a control (left). The bottom row is a pair of graphs showing expression of ALT (left) and AST(right) in the liver following administration of a 0.3 mg/kg of a MC3-based LNP containing an mRNA.

[4] = 0.3 mg/kg of MC3-based LNP containing an mRNA

With `CCCCCCCCCOC(=O)CCCCCCCN(CCO)CCCCCCCC(=O)OC(CCCCCCCC)CCCCCCCC` [Compound 18, Heptadecan-9-yl 8-((2-hydroxyethyl)(8-(nonyloxy)-8-oxooctyl)amino)octanoate] the Detection in incubation ([1]; 0 min) was “+”, the Detection in incubation ([1]; 30 min) was “+” and the Detection in incubation ([1]; 60 min) was “+”. The Detection in incubation ([1]; 90 min) was “+”, the “initial step of metabolism” value ([1]; in vitro metabolite identification studies) was “primary ester hydrolysis to compound 166” and the IFNg (IL-6, MCP-1; 0.05 mpk, 2 h) was 18.8 pg/mL. The IFNα (IL-6, MCP-1; 0.05 mpk, 2 h) was 18.8 pg/mL, the IL-1b (IL-6, MCP-1; 0.05 mpk, 2 h) was 18.8 pg/mL and the IL-6 (IL-6, MCP-1; 0.05 mpk, 2 h) was 18.8 pg/mL. The MCP-1 (IL-6, MCP-1; 0.05 mpk, 2 h) was 342 pg/mL, the TNF-α (IL-6, MCP-1; 0.05 mpk, 2 h) was 18.8 pg/mL and the IFNg (IL-6, MCP-1; 0.05 mpk, 6 h) was 18.8 pg/mL. It also gave an IFNα (IL-6, MCP-1; 0.05 mpk, 6 h) of 18.8 pg/mL, an IL-1b (IL-6, MCP-1; 0.05 mpk, 6 h) of 18.8 pg/mL and an IL-6 (IL-6, MCP-1; 0.05 mpk, 6 h) of 18.8 pg/mL. The MCP-1 (IL-6, MCP-1; 0.05 mpk, 6 h) was 543 pg/mL, the TNF-α (IL-6, MCP-1; 0.05 mpk, 6 h) was 41.5 pg/mL and the IFNg (IL-6, MCP-1; 0.05 mpk, 24 h) was 18.8 pg/mL. For the same molecule, the IFNα (IL-6, MCP-1; 0.05 mpk, 24 h) was 18.8 pg/mL, the IL-1b (IL-6, MCP-1; 0.05 mpk, 24 h) was 18.8 pg/mL and the IL-6 (IL-6, MCP-1; 0.05 mpk, 24 h) was 18.8 pg/mL. It also gave an MCP-1 (IL-6, MCP-1; 0.05 mpk, 24 h) of 236 pg/mL, a TNF-α (IL-6, MCP-1; 0.05 mpk, 24 h) of 17.6 pg/mL and an IFNg (IL-6, MCP-1; 0.05 mpk, Day 5) of 39.3 pg/mL. It also gave an IFNα (IL-6, MCP-1; 0.05 mpk, Day 5) of 18.8 pg/mL, an IL-1b (IL-6, MCP-1; 0.05 mpk, Day 5) of 18.8 pg/mL and an IL-6 (IL-6, MCP-1; 0.05 mpk, Day 5) of 18.8 pg/mL. It also gave an MCP-1 (IL-6, MCP-1; 0.05 mpk, Day 5) of 232 pg/mL, a TNF-α (IL-6, MCP-1; 0.05 mpk, Day 5) of 63.5 pg/mL and an IFNg (IL-6, MCP-1; 0.05 mpk, Predose) of 18.8 pg/mL. For the same molecule, the IFNα (IL-6, MCP-1; 0.05 mpk, Predose) was 18.8 pg/mL, the IL-1b (IL-6, MCP-1; 0.05 mpk, Predose) was 18.8 pg/mL and the IL-6 (IL-6, MCP-1; 0.05 mpk, Predose) was 18.8 pg/mL. For the same molecule, the MCP-1 (IL-6, MCP-1; 0.05 mpk, Predose) was 192 pg/mL, the TNF-α (IL-6, MCP-1; 0.05 mpk, Predose) was 18.8 pg/mL and the IFNg (IL-6, MCP-1; 0.3 mpk, 2 h) was 18.8 pg/mL. It also gave an IFNα (IL-6, MCP-1; 0.3 mpk, 2 h) of 18.8 pg/mL, an IL-1b (IL-6, MCP-1; 0.3 mpk, 2 h) of 18.8 pg/mL and an IL-6 (IL-6, MCP-1; 0.3 mpk, 2 h) of 191 pg/mL. For the same molecule, the MCP-1 (IL-6, MCP-1; 0.3 mpk, 2 h) was 3018 pg/mL, the TNF-α (IL-6, MCP-1; 0.3 mpk, 2 h) was 38.2 pg/mL and the IFNg (IL-6, MCP-1; 0.3 mpk, 6 h) was 18.8 pg/mL. For the same molecule, the IFNα (IL-6, MCP-1; 0.3 mpk, 6 h) was 18.8 pg/mL, the IL-1b (IL-6, MCP-1; 0.3 mpk, 6 h) was 18.8 pg/mL and the IL-6 (IL-6, MCP-1; 0.3 mpk, 6 h) was 33.0 pg/mL. For the same molecule, the MCP-1 (IL-6, MCP-1; 0.3 mpk, 6 h) was 2011 pg/mL, the TNF-α (IL-6, MCP-1; 0.3 mpk, 6 h) was 32.5 pg/mL and the IFNg (IL-6, MCP-1; 0.3 mpk, 24 h) was 18.8 pg/mL. The IFNα (IL-6, MCP-1; 0.3 mpk, 24 h) was 18.8 pg/mL, the IL-1b (IL-6, MCP-1; 0.3 mpk, 24 h) was 18.8 pg/mL and the IL-6 (IL-6, MCP-1; 0.3 mpk, 24 h) was 18.8 pg/mL. The MCP-1 (IL-6, MCP-1; 0.3 mpk, 24 h) was 404 pg/mL, the TNF-α (IL-6, MCP-1; 0.3 mpk, 24 h) was 59.6 pg/mL and the IFNg (IL-6, MCP-1; 0.3 mpk, Day 5) was 18.8 pg/mL. The IFNα (IL-6, MCP-1; 0.3 mpk, Day 5) was 18.8 pg/mL, the IL-1b (IL-6, MCP-1; 0.3 mpk, Day 5) was 18.8 pg/mL and the IL-6 (IL-6, MCP-1; 0.3 mpk, Day 5) was 18.8 pg/mL. The MCP-1 (IL-6, MCP-1; 0.3 mpk, Day 5) was 211 pg/mL, the TNF-α (IL-6, MCP-1; 0.3 mpk, Day 5) was 18.8 pg/mL and the IFNg (IL-6, MCP-1; 0.3 mpk, Predose) was 18.8 pg/mL. It also gave an IFNα (IL-6, MCP-1; 0.3 mpk, Predose) of 18.8 pg/mL, an IL-1b (IL-6, MCP-1; 0.3 mpk, Predose) of 18.8 pg/mL and an IL-6 (IL-6, MCP-1; 0.3 mpk, Predose) of 18.8 pg/mL. It also gave an MCP-1 (IL-6, MCP-1; 0.3 mpk, Predose) of 168 pg/mL, a TNF-α (IL-6, MCP-1; 0.3 mpk, Predose) of 18.8 pg/mL and an IFNg (IL-6, MCP-1; 1.0 mpk, 2 h) of 35.8 pg/mL. It also gave an IFNα (IL-6, MCP-1; 1.0 mpk, 2 h) of 18.8 pg/mL, an IL-1b (IL-6, MCP-1; 1.0 mpk, 2 h) of 33.4 pg/mL and an IL-6 (IL-6, MCP-1; 1.0 mpk, 2 h) of 834 pg/mL. For the same molecule, the MCP-1 (IL-6, MCP-1; 1.0 mpk, 2 h) was 4221 pg/mL, the TNF-α (IL-6, MCP-1; 1.0 mpk, 2 h) was 18.8 pg/mL and the IFNg (IL-6, MCP-1; 1.0 mpk, 6 h) was 38.9 pg/mL. For the same molecule, the IFNα (IL-6, MCP-1; 1.0 mpk, 6 h) was 18.8 pg/mL, the IL-1b (IL-6, MCP-1; 1.0 mpk, 6 h) was 18.8 pg/mL and the IL-6 (IL-6, MCP-1; 1.0 mpk, 6 h) was 398 pg/mL. The MCP-1 (IL-6, MCP-1; 1.0 mpk, 6 h) was 3945 pg/mL, the TNF-α (IL-6, MCP-1; 1.0 mpk, 6 h) was 18.8 pg/mL and the IFNg (IL-6, MCP-1; 1.0 mpk, 24 h) was 18.8 pg/mL. For the same molecule, the IFNα (IL-6, MCP-1; 1.0 mpk, 24 h) was 18.8 pg/mL, the IL-1b (IL-6, MCP-1; 1.0 mpk, 24 h) was 18.8 pg/mL and the IL-6 (IL-6, MCP-1; 1.0 mpk, 24 h) was 31.4 pg/mL. For the same molecule, the MCP-1 (IL-6, MCP-1; 1.0 mpk, 24 h) was 1444 pg/mL, the TNF-α (IL-6, MCP-1; 1.0 mpk, 24 h) was 46.2 pg/mL and the IFNg (IL-6, MCP-1; 1.0 mpk, Day 5) was 18.8 pg/mL. For the same molecule, the IFNα (IL-6, MCP-1; 1.0 mpk, Day 5) was 18.8 pg/mL, the IL-1b (IL-6, MCP-1; 1.0 mpk, Day 5) was 18.8 pg/mL and the IL-6 (IL-6, MCP-1; 1.0 mpk, Day 5) was 18.8 pg/mL. The MCP-1 (IL-6, MCP-1; 1.0 mpk, Day 5) was 225 pg/mL, the TNF-α (IL-6, MCP-1; 1.0 mpk, Day 5) was 41.9 pg/mL and the IFNg (IL-6, MCP-1; 1.0 mpk, Predose) was 18.8 pg/mL. For the same molecule, the IFNα (IL-6, MCP-1; 1.0 mpk, Predose) was 18.8 pg/mL, the IL-1b (IL-6, MCP-1; 1.0 mpk, Predose) was 18.8 pg/mL and the IL-6 (IL-6, MCP-1; 1.0 mpk, Predose) was 18.8 pg/mL. It also gave an MCP-1 (IL-6, MCP-1; 1.0 mpk, Predose) of 235 pg/mL and a TNF-α (IL-6, MCP-1; 1.0 mpk, Predose) of 18.8 pg/mL.

In the case of `CCCCC/C=C\C/C=C\CCCCCCCCC(CCCCCCCC/C=C\C/C=C\CCCCC)OC(=O)CCCN(C)C` [MC3, DLin-MC3-DMA, reference compound], the “ALT, AST and pathology” value [2] is given as “ALT and AST were elevated and pathology showed evidence of necrosis”, the “decrease of maximal expression levels over the course of the study” value (hEPO mRNA) is given as ~70% and the pathology ([3]; 0.3 mg/kg MC3-based LNP) is given as “evidence of necrosis”. The ALT [3, 4] was “elevated” and the AST [3, 4] was “elevated”.
